From ChEMBL document CHEMBL1201862, “PubChem BioAssay data set” (2004)
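Results reflect a 48-hour exposure of cells in 96-well plates to compound at five concentrations. Here, GI50 denotes the concentration required for 50% inhibition of growth.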 Active and inactive are the calls of the source. Cut-off read from the data, not from the text of the source: active = GI50 up to about 1.1 µM and inactive = higher.

Experiments:
Assay in all cases: NCI-60 cell line screen, 48 h
[1] = system: 786-0
[2] = system: PC-3
[3] = system: UO-31
[4] = system: NCI-H226
[5] = system: OVCAR-4
[6] = system: MDA-MB-435
[7] = system: ACHN
[8] = system: SR
[9] = system: NCI/ADR-RES
[10] = system: CAKI-1
[11] = system: SF-539
[12] = system: Malme-3M
[13] = system: MDA-MB-231
[14] = system: LOX IMVI
[15] = system: SNB-19
[16] = system: RXF 393
[17] = system: K562
[18] = system: KM12
[19] = system: SK-MEL-2

Compound	GI50 [1]	GI50 [2]	GI50 [3]	GI50 [4]	GI50 [5]	GI50 [6]	GI50 [7]	GI50 [8]	GI50 [9]	GI50 [10]	GI50 [11]	GI50 [12]	GI50 [13]	GI50 [14]	GI50 [15]	GI50 [16]	GI50 [17]	GI50 [18]	GI50 [19]
O=C(NCCCCCCCCNC(=O)c1cc(-c2ccccc2)nc2ccccc12)c1cc(-c2ccccc2)nc2ccccc12	41.7 µM (inactive)	> 100 µM (inactive)	> 100 µM (inactive)	> 100 µM (inactive)	> 100 µM (inactive)	> 100 µM (inactive)	> 100 µM (inactive)	> 100 µM (inactive)	> 100 µM (inactive)	> 100 µM (inactive)	71.1 µM (inactive)	> 100 µM (inactive)	> 100 µM (inactive)	> 100 µM (inactive)	64.9 µM (inactive)	2.48 µM (inactive)	> 100 µM (inactive)		
O=[N+]([O-])C1=Cc2c(O)ccc(O)c2C2OC=CC12 (stereo unspecified)	17.9 µM (inactive)	14.7 µM (inactive)	14.6 µM (inactive)	30.7 µM (inactive)	16.4 µM (inactive)	2.4 µM (inactive)	14.8 µM (inactive)	23 µM (inactive)	19.2 µM (inactive)	13.1 µM (inactive)	22.2 µM (inactive)		18.5 µM (inactive)	15.7 µM (inactive)	23.9 µM (inactive)	15.2 µM (inactive)	9.44 µM (inactive)	16.4 µM (inactive)	18.7 µM (inactive)
CCCCCCCC1(N=[N+]=[N-])C(=O)c2ccccc2N(C)C1=O (stereo unspecified)	> 100 µM (inactive)	> 100 µM (inactive)		> 100 µM (inactive)	87.3 µM (inactive)	89.9 µM (inactive)	75 µM (inactive)	> 100 µM (inactive)	35.6 µM (inactive)	> 100 µM (inactive)	> 100 µM (inactive)	> 100 µM (inactive)	> 100 µM (inactive)	97.1 µM (inactive)	> 100 µM (inactive)	69.8 µM (inactive)		> 100 µM (inactive)	
O=C1c2ccccc2C(=O)C2NC(CCCCCSSCCCCCC3=NC4C(=O)c5ccccc5C(=O)C4N3)=NC12 (stereo unspecified)	28.8 µM (inactive)	> 100 µM (inactive)	7.74 µM (inactive)	> 100 µM (inactive)	> 100 µM (inactive)	> 100 µM (inactive)	10.4 µM (inactive)	1.48 µM (inactive)	> 100 µM (inactive)	6.47 µM (inactive)	24.3 µM (inactive)		96.2 µM (inactive)	> 100 µM (inactive)		22.3 µM (inactive)	> 100 µM (inactive)	80.9 µM (inactive)	> 100 µM (inactive)
CC[C@@H]1CC[C@@H]2[C@H](CC[C@]3(C)[C@@H](OS(=O)(=O)c4ccc(C)cc4)CC[C@@H]23)[C@H]1CO	> 100 µM (inactive)	82 µM (inactive)	21.3 µM (inactive)	> 100 µM (inactive)	> 100 µM (inactive)	> 100 µM (inactive)	> 100 µM (inactive)	> 100 µM (inactive)	> 100 µM (inactive)	> 100 µM (inactive)	81.5 µM (inactive)	> 100 µM (inactive)	> 100 µM (inactive)	23.8 µM (inactive)	> 100 µM (inactive)	> 100 µM (inactive)	69.2 µM (inactive)	> 100 µM (inactive)	
Cc1cc2c(c(/C=N/c3ccccc3O)c1)OC1(C=C2)Oc2ccccc2C(=O)N1C (stereo unspecified)	14.4 µM (inactive)	17.4 µM (inactive)	10.6 µM (inactive)	15.4 µM (inactive)	23.1 µM (inactive)	22.6 µM (inactive)	14.2 µM (inactive)	15.8 µM (inactive)	17.3 µM (inactive)	13.3 µM (inactive)			16.3 µM (inactive)	12.8 µM (inactive)	24.7 µM (inactive)	13 µM (inactive)	12.3 µM (inactive)	20.8 µM (inactive)	19.5 µM (inactive)
COc1ccc(C(=O)/C=C/c2ccc(OCCCOc3ccc(/C=C/C(=O)c4ccc(OC)cc4)cc3)cc2)cc1	> 100 µM (inactive)	> 100 µM (inactive)	> 100 µM (inactive)	> 100 µM (inactive)	60.7 µM (inactive)	> 100 µM (inactive)	> 100 µM (inactive)	> 100 µM (inactive)	> 100 µM (inactive)	> 100 µM (inactive)	28.8 µM (inactive)		> 100 µM (inactive)		> 100 µM (inactive)	> 100 µM (inactive)	> 100 µM (inactive)	91.2 µM (inactive)	> 100 µM (inactive)
COc1cc2c(cc1OC)C(=O)C1(C2)[C@H](c2ccccc2)C2C(=O)c3cc(OC)c(OC)cc3C2[C@H]1c1ccccc1 (stereo partly specified)	> 100 µM (inactive)	> 100 µM (inactive)	> 100 µM (inactive)	> 100 µM (inactive)	> 100 µM (inactive)	> 100 µM (inactive)	25.8 µM (inactive)	> 100 µM (inactive)	> 100 µM (inactive)	0.259 µM (active)	> 100 µM (inactive)	> 100 µM (inactive)	> 100 µM (inactive)	> 100 µM (inactive)	> 100 µM (inactive)	63.5 µM (inactive)	> 100 µM (inactive)	> 100 µM (inactive)	
CC1=CC(C/C(C)=C/COc2ccc3ccc(=O)oc3c2)OC1=O (stereo unspecified)	> 100 µM (inactive)	68.9 µM (inactive)	> 100 µM (inactive)	> 100 µM (inactive)	> 100 µM (inactive)	54.5 µM (inactive)	> 100 µM (inactive)	95.1 µM (inactive)	27.4 µM (inactive)	> 100 µM (inactive)	> 100 µM (inactive)		5.66 µM (inactive)	> 100 µM (inactive)	> 100 µM (inactive)	> 100 µM (inactive)	59.8 µM (inactive)	> 100 µM (inactive)	
CSC(=S)CC(O)[C@@H]1CC2c3ccccc3C1c1ccccc12 (stereo partly specified)	18 µM (inactive)	5.83 µM (inactive)	11.7 µM (inactive)	9.06 µM (inactive)	12.1 µM (inactive)	11.3 µM (inactive)	13.6 µM (inactive)	3.46 µM (inactive)	12.6 µM (inactive)		17.9 µM (inactive)	19.7 µM (inactive)	23.8 µM (inactive)	6.35 µM (inactive)	11.2 µM (inactive)	2.19 µM (inactive)	4.56 µM (inactive)	11.3 µM (inactive)	
CCOC(=O)c1ccc(NCC#CCN2CCCCC2)cc1	> 100 µM (inactive)	> 100 µM (inactive)	> 100 µM (inactive)	> 100 µM (inactive)	> 100 µM (inactive)	> 100 µM (inactive)	57.5 µM (inactive)	> 100 µM (inactive)	> 100 µM (inactive)		> 100 µM (inactive)	> 100 µM (inactive)	> 100 µM (inactive)	> 100 µM (inactive)	> 100 µM (inactive)	> 100 µM (inactive)	26.8 µM (inactive)	> 100 µM (inactive)	> 100 µM (inactive)
COC(=O)C1(Cc2ccc3c(c2)CCC3)Cc2ccc3c(c2C1)CCC3 (stereo unspecified)	24.5 µM (inactive)	16.9 µM (inactive)	18.7 µM (inactive)	21.1 µM (inactive)	17.2 µM (inactive)	12.7 µM (inactive)	24.1 µM (inactive)	> 10 µM (inactive)	20.6 µM (inactive)	21.6 µM (inactive)	37.9 µM (inactive)	16.5 µM (inactive)	15.6 µM (inactive)	16.8 µM (inactive)		24 µM (inactive)	85.5 µM (inactive)	17.7 µM (inactive)	
COC(=O)CC(C)(N[S+]([O-])c1ccc(C)cc1)c1ccccc1 (stereo unspecified)	> 100 µM (inactive)	> 100 µM (inactive)	> 100 µM (inactive)	> 100 µM (inactive)	> 100 µM (inactive)	> 100 µM (inactive)	> 100 µM (inactive)	> 100 µM (inactive)	> 100 µM (inactive)		> 100 µM (inactive)	> 100 µM (inactive)	> 100 µM (inactive)	> 100 µM (inactive)	> 100 µM (inactive)	> 100 µM (inactive)	> 100 µM (inactive)	> 100 µM (inactive)	> 100 µM (inactive)
CC(C(=O)n1ccnc1)N1c2ccccc2Sc2ccccc21 (stereo unspecified)	59.2 µM (inactive)	55.1 µM (inactive)	70.1 µM (inactive)	61.9 µM (inactive)	> 100 µM (inactive)	> 100 µM (inactive)	83.2 µM (inactive)	50.1 µM (inactive)	63.2 µM (inactive)		> 100 µM (inactive)	83.6 µM (inactive)	78.3 µM (inactive)	82.8 µM (inactive)	> 100 µM (inactive)	> 100 µM (inactive)	91.2 µM (inactive)	71.3 µM (inactive)	> 100 µM (inactive)
CC(C)(C)OC(=O)C(C1NC(C(=O)O)C(C)(C)S1)N1C(=O)c2ccccc2C1=O (stereo unspecified)	> 100 µM (inactive)	> 100 µM (inactive)	> 100 µM (inactive)		> 100 µM (inactive)	> 100 µM (inactive)	> 100 µM (inactive)	> 100 µM (inactive)	> 100 µM (inactive)	> 100 µM (inactive)	> 100 µM (inactive)	> 100 µM (inactive)	> 100 µM (inactive)	> 100 µM (inactive)	> 100 µM (inactive)	> 100 µM (inactive)	> 100 µM (inactive)	> 100 µM (inactive)	> 100 µM (inactive)
